Measured values from BindingDB's records for patent US10155727 (Janssen Pharmaceuticals, 2018).

Biological target: Glutamate receptor ionotropic, NMDA 2B (Rattus norvegicus, UniProt P35439+Q00960)
Assay: Inhibition of Specific Binding to the Rat NR1/NR2B Receptor
Procedure: After thawing on the day of the assay, a 5 ml membrane aliquot was centrifuged at 48000 g for 30 min at 4° C. The pellet was resuspended in 5 ml of 5 mM Tris/1 mM EDTA buffer, pH 7.4, homogenized for 30 sec at 20000 rpm with an Ultraturrax and centrifuged at 48000 g for 30 min at 4° C. This was repeated twice. […] Nonspecific binding was estimated in the presence of […]. The samples were incubated for 60 min. at 4° C.The incubation was terminated by filtration of the membrane preparations using Filtermat B (Pharmacia, Uppsala Sweden) and a Micro Cell Harvester (Skatron, Lier, Norway). The Filtermat B had been presoaked with 1% polyethylene imine and carefully washed with 50 mM Tris/HCl-buffer pH 7.7 after the filtration to separate free and bound radioactivity. […] For pipetting of the incubation mixture the robot Biomek2000 (Fa. Beckman) was used.

Sequence of Glutamate receptor ionotropic, NMDA 2B (Q00960 whole entry, one chain of several): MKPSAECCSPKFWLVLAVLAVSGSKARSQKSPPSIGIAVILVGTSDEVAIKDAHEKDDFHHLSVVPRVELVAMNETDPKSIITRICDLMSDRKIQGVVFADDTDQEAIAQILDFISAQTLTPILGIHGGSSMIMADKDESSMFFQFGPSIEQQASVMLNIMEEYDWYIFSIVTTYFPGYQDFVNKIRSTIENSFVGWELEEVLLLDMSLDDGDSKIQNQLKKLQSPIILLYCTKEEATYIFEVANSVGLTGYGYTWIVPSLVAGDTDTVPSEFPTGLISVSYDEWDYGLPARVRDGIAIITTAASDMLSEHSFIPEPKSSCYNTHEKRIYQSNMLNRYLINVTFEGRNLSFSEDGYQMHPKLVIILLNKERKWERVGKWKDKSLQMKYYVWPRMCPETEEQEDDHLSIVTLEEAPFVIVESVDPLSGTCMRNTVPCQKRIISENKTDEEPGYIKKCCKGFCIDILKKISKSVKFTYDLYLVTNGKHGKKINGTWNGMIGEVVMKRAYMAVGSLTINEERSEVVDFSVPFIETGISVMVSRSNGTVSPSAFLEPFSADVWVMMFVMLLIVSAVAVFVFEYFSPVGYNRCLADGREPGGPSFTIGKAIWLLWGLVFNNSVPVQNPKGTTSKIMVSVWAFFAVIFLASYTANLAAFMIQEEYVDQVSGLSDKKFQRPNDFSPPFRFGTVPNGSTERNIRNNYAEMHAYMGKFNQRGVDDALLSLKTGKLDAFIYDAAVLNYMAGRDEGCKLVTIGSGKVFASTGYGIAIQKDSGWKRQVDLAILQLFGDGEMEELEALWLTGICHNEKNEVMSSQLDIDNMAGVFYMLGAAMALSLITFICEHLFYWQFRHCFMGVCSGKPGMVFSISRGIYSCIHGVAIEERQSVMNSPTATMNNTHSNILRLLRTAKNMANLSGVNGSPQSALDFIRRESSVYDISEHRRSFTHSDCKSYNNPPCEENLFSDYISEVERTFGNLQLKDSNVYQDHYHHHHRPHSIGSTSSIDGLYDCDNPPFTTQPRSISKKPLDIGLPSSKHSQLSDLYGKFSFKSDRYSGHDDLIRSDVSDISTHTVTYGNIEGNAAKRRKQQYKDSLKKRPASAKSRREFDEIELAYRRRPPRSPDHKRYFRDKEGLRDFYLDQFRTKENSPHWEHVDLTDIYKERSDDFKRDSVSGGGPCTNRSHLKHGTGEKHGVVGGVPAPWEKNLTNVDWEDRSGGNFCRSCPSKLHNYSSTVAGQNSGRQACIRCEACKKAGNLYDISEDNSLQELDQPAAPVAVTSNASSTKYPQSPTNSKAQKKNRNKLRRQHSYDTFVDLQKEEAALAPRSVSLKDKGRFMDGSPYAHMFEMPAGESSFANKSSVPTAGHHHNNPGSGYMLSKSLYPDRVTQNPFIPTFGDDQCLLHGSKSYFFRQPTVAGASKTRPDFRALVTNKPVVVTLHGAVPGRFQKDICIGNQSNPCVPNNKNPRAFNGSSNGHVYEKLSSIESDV

Row | Structure (SMILES) | IC50 [µM]
1 | Cn1ccc(Cn2cc(-c3cccc(C(F)(F)F)c3)cn2)n1 [US10155727, Example 49] | 2.25
2 | Cc1cc(Cn2cc(-c3ccc(C(F)(F)F)cc3)cn2)n(C)n1 [US10155727, Example 51] | 9.21
